Test results published in PMC5046821 (Biochemistry, 2016).

Target: Irp3 (Yersinia enterocolitica, UniProt O54512)
Assay: X-ray crystallography, […] Å, cocrystal
Type: binding
Settings: with NADP+; pH 7.3; active site, substrate analogue, occupancy 70-85%

Structure (SMILES): O=C(O)[C@@H]1CSC(c2csc(-c3ccccc3O)n2)=N1 [HPTT-COOH, 2′-(2-Hydroxyphenyl)-4,5-dihydro[2,4′-bisthiazole]-4-carboxylic Acid]
- X-ray crystallography, 1.28 Å, cocrystal: A holo-Irp3 structure was determined with both HPTT-COOH and NADP^+ bound.
